In patent publication US6846827B1, “Pyrimidine derivatives” (AstraZeneca AB, priority 1999, dated 2005) one finds IC50 data, which are given here for one molecule.

Usually IC50 stands for the point on the concentration scale where inhibition reaches its midpoint.

Molecules are shown by their SMILES.

The target in one assay is T1, p38α (Homo sapiens, UniProt Q16539).
T1 construct: c-myc (N); 6His (N); made in house; host or cells: E. coli (PET vectors)
Description: In vitro enzyme assay, p38α. Type of assay: biochemical. The conditions noted are these: read-out: IC50 against p38α. As to the method:
The ability of compounds of the invention to inhibit the enzyme p38 kinase was assessed. Activity of test compounds against each of the p38α and p38β isoforms of the enzyme was determined. […]
Test compounds were solubilised in DMSO and 10 μl of a 1:10 diluted sample in ‘Kinase Buffer’ was added to a well in a Microtiter plate. […] The precipitated protein was phosphorylated by p38 kinase and test compounds were assessed for their ability to inhibit this phosphorylation. The plates were filtered using a Canberra Packard Unifilter and washed with 2% TCA, dried overnight and counted on a Top Count scintillation counter.
Test compounds were tested initially at a single dose and active compounds were retested to allow IC50 values to be determined.

The test system of assay [1] is TNFα production in human whole blood. Nature of the assay: Human Whole Blood test: inhibition of LPS-stimulated TNFα production. Type of assay: cell-based. As to the method: The ability of the compounds of this invention to inhibit TNFα production was also assessed in a human whole blood assay. Human whole blood secretes TNFα when stimulated with LPS. This property of blood forms the basis of an assay which is used as a secondary test for compounds which profile as active in the PBMC test.
Heparinised (10 units/ml) human blood was obtained from volunteers. 160 μl whole blood were added to 96 well round-bottom plates (Corning 25850). Compounds were solubilised and serially diluted in RPMI 1640 medium (Gibco) supplemented with 50 units/ml penicillin, 50 μg/ml streptomycin and 2 mM glutamine, as detailed above. 20 μl of each test concentration was added to appropriate wells (triplicate cultures). 20 μl of RPMI 1640 medium supplemented with antibiotics and glutamine was added to control wells. Plates were incubated for 30 minutes at 37° C. (humidified incubator), prior to addition of 20 μl LPS (final concentration 10 μg/ml). RPMI 1640 medium was added to control wells. Six “LPS alone” and four “medium alone” controls were included on each plate. A known TNFα synthesis/secretion inhibitor was included in each test. Plates were incubated for 6 hours at 37° C. (humidified incubator). […] TNFα levels were measured by ELISA (see WO92/10190 and Current Protocols in Molecular Biology, vol 2 by Frederick M. Ausbel et al., John Wiley and Sons Inc.). […]

T1 sequence (Q16539 whole entry): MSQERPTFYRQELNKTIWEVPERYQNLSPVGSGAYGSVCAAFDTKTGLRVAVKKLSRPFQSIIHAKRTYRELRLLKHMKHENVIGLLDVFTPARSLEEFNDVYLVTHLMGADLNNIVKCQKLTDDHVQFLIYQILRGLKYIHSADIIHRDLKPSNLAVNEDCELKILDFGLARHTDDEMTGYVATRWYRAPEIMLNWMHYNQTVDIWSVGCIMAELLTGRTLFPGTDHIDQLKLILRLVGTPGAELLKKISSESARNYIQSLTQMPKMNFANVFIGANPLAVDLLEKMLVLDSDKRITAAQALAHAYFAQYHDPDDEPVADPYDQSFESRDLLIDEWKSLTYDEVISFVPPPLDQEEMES

As for `Cc1ccc(NC(=O)c2cc(F)cc(N3CCOCC3)c2)cc1Nc1cc(C(N)=O)nc(Cl)n1` [6-Carbamoyl-2-chloro-4-[5-(3-fluoro-5-morpholinobenzamido)-2-methylanilino]-pyrimidine], the values for the IC50 (at p38α; in assay [1]) were around 0.03 µM and around 16 µM, respectively.
